How the values were obtained:
[1] = test system: wood denaturing microorganism (Tyromyces palustris); experiment: Antimicroorganism effect, mycelial extension on PDA plate; assay type: cell-based; settings: PDA plate medium, 50 mg/l, 1 to 3 days, read-out: growth inhibition grade
[2] = test system: anthracnose microorganism (Glomerella cingulata); experiment: as above; assay type: cell-based; settings: Colletotrichum gloeosporioides, PDA plate medium, 50 mg/l, 1 to 3 days, read-out: growth inhibition grade
[3] = test system: wheat septoria bloth microorganism (Septoria tritici); experiment: Antimicroorganism effect, mycelial extension on PDA plate; assay type: cell-based; settings: Zymoseptoria tritici, PDA plate medium, 50 mg/l, 1 to 3 days, read-out: growth inhibition grade
[4] = test system: Aureobasidium microorganism (Aureobasidium sp.); experiment: as above; assay type: cell-based; settings: PDA plate medium, 50 mg/l, 1 to 3 days, read-out: growth inhibition grade
[5] = test system: rice blast microorganism (Pyricularia oryzae); experiment: microbe, parasite or virus in culture; assay type: cell-based; settings: read-out: growth inhibition grade
[6] = test system: wheat pink snow mold microorganism (Microdochium nivale); experiment: Antimicroorganism effect, mycelial extension on PDA plate; assay type: cell-based; settings: PDA plate medium, 50 mg/l, 1 to 3 days, read-out: growth inhibition grade
[7] = test system: penicillium microorganism (Penicillium sp.); experiment: as above; assay type: cell-based; settings: PDA plate medium, 50 mg/l, 1 to 3 days, read-out: growth inhibition grade
[8] = test system: barley stripe microorganism (Pyrenophora graminea); experiment: as above; assay type: cell-based; settings: PDA plate medium, 50 mg/l, 1 to 3 days, read-out: growth inhibition grade
[9] = test system: barley loose smut microorganism (Ustilago nuda); experiment: as above; assay type: cell-based; settings: PDA plate medium, 50 mg/l, 1 to 3 days, read-out: growth inhibition grade
[10] = test system: ricesheath blight microorganism (Rhizoctonia solani); experiment: as above; assay type: cell-based; settings: PDA plate medium, 50 mg/l, 1 to 3 days, read-out: growth inhibition grade
[11] = test system: rice seedling blight microorganism (Rhizopus) (Rhizopus oryzae); experiment: as above; assay type: cell-based; settings: Rhizopus arrhizus, PDA plate medium, 50 mg/l, 1 to 3 days, read-out: growth inhibition grade
[12] = test system: gray mold microorganism (Botritis cinerea); experiment: as above; assay type: cell-based; settings: PDA plate medium, 50 mg/l, 1 to 3 days, read-out: growth inhibition grade
[13] = test system: Tricoderma microorganism (Trichoderma sp.); experiment: as above; assay type: cell-based; settings: PDA plate medium, 50 mg/l, 1 to 3 days, read-out: growth inhibition grade
[14] = test system: wheat eye spot microorganism (Pseudocercosporella herpotrichoides); experiment: as above; assay type: cell-based; settings: Oculimacula yallundae, PDA plate medium, 50 mg/l, 1 to 3 days, read-out: growth inhibition grade
[15] = test system: Mucor microorganism (Mucor sp.); experiment: as above; assay type: cell-based; settings: PDA plate medium, 50 mg/l, 1 to 3 days, read-out: growth inhibition grade
[16] = test system: barley scald microorganism (Rhynchosporium secalis); experiment: as above; assay type: cell-based; settings: PDA plate medium, 50 mg/l, 1 to 3 days, read-out: growth inhibition grade
[17] = test system: citrous blue mold microorganism (Penicillium italicum); experiment: as above; assay type: cell-based; settings: PDA plate medium, 50 mg/l, 1 to 3 days, read-out: growth inhibition grade
[18] = test system: sclerotinia rot microorganism (Sclerotinia sclerotiorum); experiment: as above; assay type: cell-based; settings: PDA plate medium, 50 mg/l, 1 to 3 days, read-out: growth inhibition grade
[19] = test system: cucumber gray mold microorganism; experiment: Cucumber gray mold preventing effect assay; assay type: in vivo, Botrytis cinerea; settings: analogous assay at 25 mg/l
Description: The sprayed leaves were air-dried, and loaded with a paper disc (8 mm in diameter) soaked with a spore suspension of a cucumber gray mold microorganism, and kept at 20 degrees C. and a high humidity. 4 Days after inoculation, the cucumber gray mold severity was investigated, and the protective value was calculated by the following equation. [table]

[20] = test system: rice bakanae disease microorganism (Giberella fujikuroi); experiment: Antimicroorganism effect, mycelial extension on PDA plate; assay type: cell-based; settings: PDA plate medium, 50 mg/l, 1 to 3 days, read-out: growth inhibition grade
[21] = test system: wheat stagonospora blotch microorganism (Phaeosphaeria nodorum); experiment: as above; assay type: cell-based; settings: Parastagonospora nodorum, PDA plate medium, 50 mg/l, 1 to 3 days, read-out: growth inhibition grade
[22] = test system: cucumber fusarium wilt microorganism (Fusarium oxysporum); experiment: as above; assay type: cell-based; settings: PDA plate medium, 50 mg/l, 1 to 3 days, read-out: growth inhibition grade
[23] = test system: wheat take-all microorganism (Gaeumannomyces graminis); experiment: as above; assay type: cell-based; settings: PDA plate medium, 50 mg/l, 1 to 3 days, read-out: growth inhibition grade
[24] = test system: sugar beet cercospora leaf spot microorganism (Cercospora beticola); experiment: as above; assay type: cell-based; settings: PDA plate medium, 50 mg/l, 1 to 3 days, read-out: growth inhibition grade
[25] = test system: apple alternaria blotch microorganism (Alternaria alternata); experiment: as above; assay type: cell-based; settings: PDA plate medium, 50 mg/l, 1 to 3 days, read-out: growth inhibition grade
[26] = test system: Aspergillus microorganism (Aspergillus sp.); experiment: as above; assay type: cell-based; settings: PDA plate medium, 50 mg/l, 1 to 3 days, read-out: growth inhibition grade
[27] = test system: Curvularia microorganism (Curvularia sp.); experiment: as above; assay type: cell-based; settings: PDA plate medium, 50 mg/l, 1 to 3 days, read-out: growth inhibition grade
[28] = test system: Cladosporium microorganism (Cladosporium sp.); experiment: as above; assay type: cell-based; settings: PDA plate medium, 50 mg/l, 1 to 3 days, read-out: growth inhibition grade
[29] = test system: wheat fusarium blight microorganism (Fusarium graminearum); experiment: microbe, parasite or virus in culture; assay type: cell-based; settings: read-out: growth inhibition grade
[30] = test system: wood denaturing microorganism (Coriolus versicolor); experiment: Antimicroorganism effect, mycelial extension on PDA plate; assay type: cell-based; settings: Trametes versicolor, PDA plate medium, 50 mg/l, 1 to 3 days, read-out: growth inhibition grade

Row | Compound | inhibition at 50 µg/mL [1] [%] | inhibition at 50 µg/mL [2] [%] | melting point [°C] | inhibition at 50 µg/mL [3] [%] | inhibition at 50 µg/mL [4] [%] | inhibition at 50 µg/mL [5] [%] | inhibition at 50 µg/mL [6] [%] | inhibition at 50 µg/mL [7] [%] | inhibition at 50 µg/mL [8] [%] | inhibition at 50 µg/mL [9] [%] | inhibition at 50 µg/mL [10] [%] | inhibition at 50 µg/mL [11] [%] | inhibition at 50 µg/mL [12] [%] | inhibition at 50 µg/mL [13] [%] | inhibition at 50 µg/mL [14] [%] | inhibition at 50 µg/mL [15] [%] | inhibition at 50 µg/mL [16] [%] | inhibition at 50 µg/mL [17] [%] | inhibition at 50 µg/mL [18] [%] | inhibition at 50 µg/mL [20] [%] | also measured
1 | OC1(Cn2cncn2)C(Cc2ccc(Cl)cc2)CCC12CC2 (single isomer, unassigned) [Compound I-1, 5-(4-chlorobenzyl)-4-(1H-1,2,4-triazol-1-ylmethyl)-4-spiro[2.4]heptanol] | > 90 | > 90 | 85.5 to 87 | > 90 | 70 to 90 | > 90 | 70 to 90 | > 90 | > 90 | 70 to 90 | 70 to 90 | 70 to 90 | > 90 | > 90 | > 90 | 70 to 90 | > 90 | > 90 | > 90 | > 90 | Controlling value [19]: 100%; activity compared with Compound (A) [19]: higher activity; inhibition at 50 µg/mL [21]: > 90%; inhibition at 50 µg/mL [22]: > 90%; inhibition at 50 µg/mL [23]: > 90%; inhibition at 50 µg/mL [24]: > 90%; inhibition at 50 µg/mL [25]: 70 to 90%; inhibition at 50 µg/mL [26]: > 90%; inhibition at 50 µg/mL [27]: 70 to 90%; inhibition at 50 µg/mL [28]: > 90%; inhibition at 50 µg/mL [29]: > 90%; inhibition at 50 µg/mL [30]: > 90%
2 | OC1(Cn2cncn2)C(Cc2ccc(Cl)cc2)CCC12CC2 (single isomer, unassigned) [Compound I-2, 5-(4-chlorobenzyl)-4-(1H-1,2,4-triazol-1-ylmethyl)-4-spiro[2.4]heptanol] | – | – | 166 to 167 | – | – | – | – | – | – | – | – | – | – | – | – | – | – | – | – | – | –
3 | OC1(Cn2cncn2)C(Cc2cccc(Cl)c2)CCC12CC2 (single isomer, unassigned) [Compound I-3, 5-(3-chlorobenzyl)-4-(1H-1,2,4-triazol-1-ylmethyl)-4-spiro[2.4]heptanol] | > 90 | > 90 | 84.5 to 85.5 | > 90 | 70 to 90 | > 90 | 70 to 90 | > 90 | > 90 | 70 to 90 | 70 to 90 | 70 to 90 | > 90 | > 90 | > 90 | 70 to 90 | > 90 | > 90 | > 90 | > 90 | inhibition at 50 µg/mL [21]: > 90%; inhibition at 50 µg/mL [22]: > 90%; inhibition at 50 µg/mL [23]: > 90%; inhibition at 50 µg/mL [24]: > 90%; inhibition at 50 µg/mL [25]: 70 to 90%; inhibition at 50 µg/mL [26]: > 90%; inhibition at 50 µg/mL [27]: 70 to 90%; inhibition at 50 µg/mL [28]: > 90%; inhibition at 50 µg/mL [29]: > 90%; inhibition at 50 µg/mL [30]: > 90%
4 | OC1(Cn2cncn2)C(Cc2cccc(Cl)c2)CCC12CC2 (single isomer, unassigned) [Compound I-4, 5-(3-chlorobenzyl)-4-(1H-1,2,4-triazol-1-ylmethyl)-4-spiro[2.4]heptanol] | – | – | 120 to 121 | – | – | – | – | – | – | – | – | – | – | – | – | – | – | – | – | – | –
5 | OC1(Cn2cncn2)C(Cc2ccc(F)cc2)CCC12CC2 (single isomer, unassigned) [Compound I-7, 5-(4-fluorobenzyl)-4-(1H-1,2,4-triazol-1-ylmethyl)-4-spiro[2.4]heptanol] | > 90 | > 90 | 89 to 90 | > 90 | 70 to 90 | > 90 | 70 to 90 | > 90 | > 90 | 70 to 90 | 70 to 90 | 70 to 90 | > 90 | > 90 | > 90 | 70 to 90 | > 90 | > 90 | > 90 | > 90 | inhibition at 50 µg/mL [21]: > 90%; inhibition at 50 µg/mL [22]: > 90%; inhibition at 50 µg/mL [23]: > 90%; inhibition at 50 µg/mL [24]: > 90%; inhibition at 50 µg/mL [25]: 70 to 90%; inhibition at 50 µg/mL [26]: > 90%; inhibition at 50 µg/mL [27]: 70 to 90%; inhibition at 50 µg/mL [28]: > 90%; inhibition at 50 µg/mL [29]: > 90%; inhibition at 50 µg/mL [30]: > 90%
6 | OC1(Cn2cncn2)C(Cc2ccc(F)cc2)CCC12CC2 (single isomer, unassigned) [Compound I-8, 5-(4-fluorobenzyl)-4-(1H-1,2,4-triazol-1-ylmethyl)-4-spiro[2.4]heptanol] | – | – | 139 to 140 | – | – | – | – | – | – | – | – | – | – | – | – | – | – | – | – | – | –
7 | C[C@]12C[C@H]1C[C@H](Cc1ccc(Cl)cc1)[C@@]2(O)Cn1cncn1 (stereo in doubt) [Comparative Compound (A), 3-(4-chlorobenzyl)-1-methyl-2-(1H-1,2,4-triazol-1-ylmethyl)bicyclo[3.1.0]hexan-2-ol, reference compound] | – | – | – | – | – | – | – | – | – | – | – | – | – | – | – | – | – | – | – | – | Controlling value [19]: 54%
8 | CC1(C)CC12CCC(Cc1ccc(Cl)cc1)C2(O)Cn1cncn1 (centres unmarked) [Compound I-101, 5-(4-chlorobenzyl)-1,1-dimethyl-4-(1H-1,2,4-triazol-1-ylmethyl)-4-spiro[2.4]heptanol] | > 90 | > 90 | – | > 90 | 70 to 90 | > 90 | 70 to 90 | > 90 | > 90 | 70 to 90 | 70 to 90 | 70 to 90 | > 90 | > 90 | > 90 | 70 to 90 | > 90 | > 90 | > 90 | > 90 | inhibition at 50 µg/mL [21]: > 90%; inhibition at 50 µg/mL [22]: > 90%; inhibition at 50 µg/mL [23]: > 90%; inhibition at 50 µg/mL [24]: > 90%; inhibition at 50 µg/mL [25]: 70 to 90%; inhibition at 50 µg/mL [26]: > 90%; inhibition at 50 µg/mL [27]: 70 to 90%; inhibition at 50 µg/mL [28]: > 90%; inhibition at 50 µg/mL [29]: > 90%; inhibition at 50 µg/mL [30]: > 90%
